Test systems include PC-3 prostate; SNB-19 CNS; BT-549 breast; SF-268 CNS; SR leukemia; LOX IMVI melanoma; 786-0 renal; RXF 393 renal; SF-539 CNS; UO-31 renal.
Assay in all cases: growth of human tumour cells (NCI), 48 h

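Compound exposure: 48 hours, 5 concentrations, 96-well plates. The concentration for full growth arrest is given as TGI.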

With `CC#CC(O)(C(=O)OC1CC(C)N(C)C(C)(C)C1)C1CCCC1` (stereo not given), the TGI with PC-3 prostate, in the experiment on SNB-19 CNS, in the experiment with BT-549 breast, in the experiment with SF-268 CNS, with SR leukemia and in the experiment on LOX IMVI melanoma was greater than 100 µM in each case. For the same molecule, the TGI in the experiment on 786-0 renal, in the experiment on RXF 393 renal, in the experiment on SF-539 CNS and in the experiment with UO-31 renal was greater than 100 µM each time.

Consider `N#Cc1c(-c2ccccc2)c2c([nH]c1=O)-c1cc([N+](=O)[O-])ccc1CCC2`, for which the TGI in the experiment with PC-3 prostate is greater than 100 µM; in the experiment with SNB-19 CNS, greater than 100 µM; in the experiment with BT-549 breast, 42.7 µM; with SF-268 CNS, greater than 100 µM; with SR leukemia, greater than 100 µM; in the experiment with LOX IMVI melanoma it was 81.1 µM. Moreover, the TGI in the experiment with 786-0 renal is greater than 100 µM; in the experiment with RXF 393 renal, 42.3 µM; in the experiment on SF-539 CNS, 82.5 µM; in the experiment on UO-31 renal it was greater than 100 µM.

In the case of `C(=C\c1ccccc1)/COc1ccccc1C(N1CCOCC1)n1nc2ccccc2n1` (stereo not given), the TGI is 10.9 µM in the experiment on PC-3 prostate; greater than 63.1 µM in the experiment on SNB-19 CNS; 26.4 µM in the experiment on BT-549 breast; 28.5 µM in the experiment on SF-268 CNS; 5.49 µM with SR leukemia; 13.5 µM in the experiment with LOX IMVI melanoma. The TGI came out at 15.8 µM in the experiment on 786-0 renal, 19.4 µM in the experiment with RXF 393 renal, 6.62 µM with SF-539 CNS and 31.6 µM in the experiment on UO-31 renal.

With `O=C(CC(=O)Nc1ccccc1)NNC(c1cc(N=Nc2ccc(Br)cc2)ccc1O)P(O)O` (stereo not given), the TGI in the experiment on PC-3 prostate, with SNB-19 CNS, in the experiment on BT-549 breast, in the experiment on SF-268 CNS, with SR leukemia and in the experiment on LOX IMVI melanoma was greater than 10 µM in each case. Also, the TGI in the experiment with 786-0 renal, in the experiment with RXF 393 renal, with SF-539 CNS and in the experiment with UO-31 renal was greater than 10 µM in each case.

In the case of `CCOC(=O)C1CCC(=O)N1C(=O)c1ccccc1Cl` (stereo not given), the TGI in the experiment with PC-3 prostate, with SNB-19 CNS, with BT-549 breast, in the experiment with SF-268 CNS, with SR leukemia and with LOX IMVI melanoma was greater than 100 µM each time. Besides, the TGI in the experiment on 786-0 renal, in the experiment on RXF 393 renal, in the experiment on SF-539 CNS and in the experiment with UO-31 renal was greater than 100 µM each time.

`CCOC(=O)c1ccc(Nc2nc3ccc(C(F)(F)F)cc3nc2C(=O)OCC)cc1`: the TGI in the experiment with PC-3 prostate, in the experiment with SNB-19 CNS, in the experiment with BT-549 breast, in the experiment with SF-268 CNS, in the experiment with SR leukemia and in the experiment with LOX IMVI melanoma was greater than 100 µM each time. Further, the TGI in the experiment on 786-0 renal, in the experiment on RXF 393 renal, in the experiment on SF-539 CNS and in the experiment with UO-31 renal was greater than 100 µM throughout.

As for `c1ccc([P+](CCCCCCCC[P+](c2ccccc2)(c2ccccc2)c2ccccc2)(c2ccccc2)c2ccccc2)cc1`, the TGI in the experiment with PC-3 prostate is greater than 30.8 µM; in the experiment with SNB-19 CNS it was greater than 100 µM; with BT-549 breast, greater than 100 µM; in the experiment with SF-268 CNS it was greater than 100 µM; in the experiment with SR leukemia it was 51.6 µM; in the experiment with LOX IMVI melanoma, 32.9 µM. In addition, the TGI in the experiment on 786-0 renal was greater than 100 µM; in the experiment with RXF 393 renal it was greater than 100 µM; in the experiment with SF-539 CNS it was 19.6 µM; in the experiment with UO-31 renal, greater than 100 µM.

`C[C@H]1[C@H](C)CC[C@]2(C(=O)OC3OC(CO)C(O)C(O)C3O)CC[C@]3(C)C(=CC[C@@H]4[C@@]5(C)C[C@H]6OC(=O)c7cc(O)c(O)c(O)c7-c7c(cc(O)c(O)c7O)C(=O)O[C@@H]6C(CO)(CO)[C@@H]5CC[C@]43C)[C@H]12` (stereo not given in full): the TGI was greater than 100 µM in the experiment on PC-3 prostate; greater than 100 µM with SNB-19 CNS; greater than 100 µM in the experiment on BT-549 breast; greater than 100 µM with SF-268 CNS; greater than 96.3 µM in the experiment on SR leukemia; 34.5 µM in the experiment with LOX IMVI melanoma. Besides, the TGI with 786-0 renal was greater than 52.2 µM; in the experiment with RXF 393 renal it was greater than 100 µM; with SF-539 CNS, greater than 100 µM; with UO-31 renal, greater than 100 µM.

As to `COc1nc2c(N3CCCC3)nc(N3CCNCC3)nc2nc1NCc1ccccc1`, the TGI was determined as 6.42 µM with PC-3 prostate; 4.19 µM with SNB-19 CNS; 4.01 µM in the experiment with BT-549 breast; 5 µM in the experiment on SF-268 CNS; 3.37 µM with SR leukemia; 2.9 µM in the experiment with LOX IMVI melanoma. The TGI in the experiment on 786-0 renal was determined as 2.66 µM; in the experiment with RXF 393 renal, 2.73 µM; in the experiment with SF-539 CNS, 3.21 µM; in the experiment with UO-31 renal it was 2.85 µM.

As to `COC1C(O)C(O[C@H]2CC[C@@]3(C)C(CC[C@@H]4[C@@H]3CC[C@]3(C)[C@@H](C(C)OC5OC(CO)C(O)C(O)C5O)CC[C@]43O)C2)OC(C)C1OC1OC(CO)C(O)C(O)C1O` (stereo not given in full), the TGI with PC-3 prostate, in the experiment with SNB-19 CNS, in the experiment on BT-549 breast, in the experiment on SF-268 CNS, with SR leukemia and in the experiment on LOX IMVI melanoma was greater than 100 µM throughout. The TGI with 786-0 renal, in the experiment on RXF 393 renal, in the experiment with SF-539 CNS and with UO-31 renal was greater than 100 µM in each case.

As to `Clc1nncc2sc(-c3ccccc3)nc12`, the TGI with PC-3 prostate was greater than 58.2 µM; in the experiment with SNB-19 CNS, 51.4 µM; in the experiment with BT-549 breast, greater than 53.2 µM; in the experiment with SF-268 CNS it was 49 µM; in the experiment with SR leukemia, greater than 100 µM; with LOX IMVI melanoma it was 50.2 µM. In addition, the TGI in the experiment with 786-0 renal was greater than 100 µM; with RXF 393 renal it was 50.7 µM; in the experiment on SF-539 CNS it was 74.6 µM; in the experiment on UO-31 renal, 55 µM.

Consider `Nc1nc(Nc2ccccc2)sc1C(=O)c1ccco1`, for which the TGI is greater than 100 µM in the experiment on PC-3 prostate; 50.9 µM in the experiment with SNB-19 CNS; 54.3 µM in the experiment with BT-549 breast; greater than 100 µM in the experiment with SF-268 CNS; 25.2 µM in the experiment with SR leukemia; 42.8 µM in the experiment with LOX IMVI melanoma. Moreover, the TGI came out at 31.7 µM with 786-0 renal, 30.8 µM with RXF 393 renal, 33.3 µM in the experiment with SF-539 CNS and 30.2 µM in the experiment on UO-31 renal.

For the molecule `Cc1cc(NS(=O)(=O)c2ccc(NC(NC(=O)C(C(F)(F)F)C(F)(F)F)(C(F)(F)F)C(F)(F)F)cc2)no1`, the TGI in the experiment with PC-3 prostate, in the experiment with SNB-19 CNS, in the experiment on BT-549 breast, in the experiment on SF-268 CNS, with SR leukemia and with LOX IMVI melanoma was greater than 100 µM in each case. In addition, the TGI in the experiment with 786-0 renal, in the experiment on RXF 393 renal, with SF-539 CNS and in the experiment with UO-31 renal was greater than 100 µM throughout.

(Values after PubChem BioAssay (NCI).)
